# From patent US7491827B2, “Aryl sulfonamides useful as inhibitors of chemokine receptor activity” (Millennium Pharmaceuticals, Inc., priority 2003, dated 2009)
# Molecular target: T1, cloned human CCR8 receptor stably expressed in L1.2 cells (Homo sapiens, UniProt P51685)
# T1 construct: expressed in transfected cells
# Assay: whole cell binding screen: inhibition of biotinylated human I309 binding to CCR8 (FMAT 8100 HTS)
# Conditions: L1.2/hCCR8 cells, biotinylated human I-309, 10 point concentration response starting at 10 μM; read-out: Ki of compounds to inhibit I-309 binding to CCR8
# How it was run: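 Ten-point dilutions, top 10 μM final, were tested for displacing biotin-I309 from hCCR8-transfected L1.2 cells in HEPES-buffered HBSS with BSA and sodium azide, mixing 0.5 h before FMAT 8100 detection. Signals converted to percent inhibition against untreated wells and a 100 nM excess unlabeled I309 control.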
# T1 sequence (P51685 whole entry): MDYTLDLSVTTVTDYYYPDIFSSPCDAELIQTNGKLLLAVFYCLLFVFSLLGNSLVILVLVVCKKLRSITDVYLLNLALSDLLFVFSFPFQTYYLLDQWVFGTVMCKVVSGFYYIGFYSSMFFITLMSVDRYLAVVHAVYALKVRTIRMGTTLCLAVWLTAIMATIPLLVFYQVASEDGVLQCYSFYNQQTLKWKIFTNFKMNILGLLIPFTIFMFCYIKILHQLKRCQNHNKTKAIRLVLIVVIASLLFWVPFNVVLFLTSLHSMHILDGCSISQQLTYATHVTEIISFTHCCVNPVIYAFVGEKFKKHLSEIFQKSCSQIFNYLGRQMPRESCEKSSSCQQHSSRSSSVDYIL
row,Ki [nM],SMILES
1,< 500,"Cc1ccccc1C(=O)Nc1ccc(S(=O)(=O)N[C@@H]2CCN(C(=O)[C@H](C)N)C[C@@H]2C)c2ccccc12 [Compound J-4, (3S, 4R)-N-{4-[1-(2-(S)-Amino-propionyl)-3-methyl-piperidin-4-ylsulfamoyl]-naphthalen-1-yl}-2-methyl-benzamide]"
2,< 500,"Cc1ccccc1C(=O)Nc1ccc(S(=O)(=O)N[C@H]2CCN(C(=O)[C@H]3CCCN3)C[C@H]2C)c2ccccc12 [Compound J-7, (3R, 4S)-2-Methyl-N-{4-[3-methyl-1-((R)pyrrolidine-2-carbonyl)-piperidin-4-ylsuffamoyl]-naphthalen-1-yl}-benzamide]"
3,< 500,"Cc1ccccc1C(=O)Nc1ccc(S(=O)(=O)N[C@H]2CCN(C(=O)C(C)(C)N)C[C@H]2C)c2ccccc12 [Compound J-8, (3R, 4S)-N-{4-[1-(2-Amino-2-methyl-propionyl)-3-methyl-piperidin-4-ylsuffamoyl]-naphthalen-1-yl}-2-methyl-benzamide]"
4,< 500,"CC[C@@H]1CN(C(=O)[C@@H]2CCCN2)CC[C@H]1NS(=O)(=O)c1ccc(NC(=O)c2ccccc2C)c2ccccc12 [Compound J-30, (3R, 4R)-N-{4-[3-Ethyl-1-(pyrrolidine-2-(S)-carbonyl)-piperidin-4-ylsulfamoyl]-naphthalen-1-yl}-2-methyl-benzamide]"
5,< 500,"CC[C@H]1CN(C(=O)[C@@H]2CCCN2)CC[C@@H]1NS(=O)(=O)c1ccc(NC(=O)c2ccccc2C)c2ccccc12 [Compound J-31, (3S, 4S)-N-{4-[3-Ethyl-1-(pyrrolidine-2-(S)-carbonyl)-piperidin-4-ylsulfamoyl]-naphthalen-1-yl}-2-methyl-benzamide]"
6,< 500,"CC[C@H]1CN(C(=O)[C@H](C)N)CC[C@@H]1NS(=O)(=O)c1ccc(NC(=O)c2ccccc2C)c2ccccc12 [Compound J-33, (3S, 4S)-N-{4-[1-(2-(S)-Amino-propionyl)-3-ethyl-piperidin-4-ylsulfamoyl]-naphthalen-1-yl}-2-methyl-benzamide]"
7,< 500,"CCOC(=O)N1CC[C@H](NS(=O)(=O)c2ccc(NC(=O)c3ccccc3C)c3ncccc23)[C@H](C)C1 [Compound J-40, (3R, 4S)-3-Methyl-4-[8-(2-methyl-benzoylamino)-quinoline-5-sulfonylamino]-piperidine-1-carboxylic acid ethyl ester]"
8,< 500,"CCCC(=O)N1CC[C@H](NS(=O)(=O)c2ccc(NC(=O)c3ccccc3C)c3ncccc23)[C@H](C)C1 [Compound J-41, (3R, 4S)-N-[5-(1-Butyryl-3-methyl-piperidin-4-ylsulfamoyl)-quinolin-8-yl]-2-methyl-benzamide]"
9,< 1000,"CCOC(=O)N1CCC(NS(=O)(=O)c2ccc(NC(=O)c3ccccc3C)c3c2CCCC3=O)CC1 [Compound J-43, 4-[4-(2-Methyl-benzoylamino)-5-oxo-5,6,7,8-tetrahydro-naphthalene-1-sulfonylamino]-piperidine-1-carboxylic acid ethyl ester]"
10,< 500,CC[C@H]1CNCC[C@@H]1NS(=O)(=O)c1ccc(NC(=O)c2ccccc2C)c2ccccc12 [Compound J-47]
11,< 500,Cc1ccccc1C(=O)Nc1ccc(S(=O)(=O)NC2(C)CCNCC2)c2ccccc12 [Compound J-49]
12,< 5000,CCOC(=O)[C@@H]1CNCC[C@@H]1NS(=O)(=O)c1ccc(NC(=O)c2ccccc2C)c2ccccc12 [Compound J-55]
13,< 5000,Cc1ccccc1C(=O)Nc1ccc(S(=O)(=O)N[C@H]2CCNC[C@@H]2CC(C)C)c2ccccc12 [Compound J-56]

# Second part, the compound before the results:
row,SMILES,Ki [nM]
1,"Cc1ccccc1C(=O)Nc1ccc(S(=O)(=O)N[C@H]2CCN(C(=O)[C@H](C)N)C[C@H]2C)c2ccccc12 [Compound J-5, (3R, 4S)-N-{4-[1-(2-(S)-Amino-propionyl)-3-methyl-piperidin-4-ylsulfamoyl]-naphthalen-1-yl}-2-methyl-benzamide]",< 500
2,"Cc1ccccc1C(=O)Nc1ccc(S(=O)(=O)N[C@H]2CCN(C(=O)[C@@H](C)N)C[C@H]2C)c2ccccc12 [Compound J-6, (3R, 4S)-N-{4-[1-(2-(R)-Amno-propionyl)-3-methyl-piperidin-4-ylsulfamoyl]-naphthalen-1-yl}-2-methyl-benzamide]",< 500
3,"Cc1ccccc1C(=O)Nc1ccc(S(=O)(=O)N[C@H]2CCN(C(=O)C3(N)CC3)C[C@H]2C)c2ccccc12 [Compound J-9, (3R, 4S)-N-{4-[1-(1-Amino-cyclopropanecarbonyl)-3-methyl-piperidin-4-ylsuffamoyl]-naphthalen-1-yl}-2-methyl-benzamide]",< 500
4,"CC[C@@H]1CN(C(=O)[C@H](C)N)CC[C@H]1NS(=O)(=O)c1ccc(NC(=O)c2ccccc2C)c2ccccc12 [Compound J-32, (3R, 4R)-N-{4-[1-(2-(S)-Amino-propionyl)-3-ethyl-piperidin-4-ylsulfamoyl]-naphthalen-1-yl}-2-methyl-benzamide]",< 500
5,"CCOC(=O)N1CCC(NS(=O)(=O)c2ccc(NC(=O)c3ccccc3C)c3c2CN(CC)CC3)CC1 [Compound J-42, 4-[2-Ethyl-5-(2-methyl-benzoylamno)-1,2,3,4-tetrahydro-isoquinoline-8-sulfonylamino]-piperidine-1-carboxylic acid ethyl ester]",< 500
6,Cc1ccccc1C(=O)Nc1ccc(S(=O)(=O)N[C@H]2CCNC[C@@H]2C)c2ccccc12 [Compound J-44],< 500
7,CC[C@@H]1CNCC[C@@H]1NS(=O)(=O)c1ccc(NC(=O)c2ccccc2C)c2ccccc12 [Compound J-45],< 500
8,Cc1ccccc1C(=O)Nc1ccc(S(=O)(=O)NC2[C@@H](C)CNC[C@@H]2C)c2ccccc12 [Compound J-46],< 500
9,Cc1ccccc1C(=O)Nc1ccc(S(=O)(=O)N[C@H]2CCNC[C@H]2C)c2ccccc12 [Compound J-50],< 500
10,Cc1ccccc1C(=O)Nc1ccc(S(=O)(=O)N[C@H]2CCNC[C@H]2CC(C)C)c2ccccc12 [Compound J-52],< 500
11,Cc1ccccc1C(=O)Nc1ccc(S(=O)(=O)N[C@@H]2[C@H](C)CNC[C@@H]2C)c2ccccc12 [Compound J-53],< 5000
12,Cc1ccccc1C(=O)Nc1ccc(S(=O)(=O)N[C@@H]2CCNC[C@H]2C)c2ccccc12 [Compound J-54],< 5000
